Assay results published in patent US12427134B2, “Methods of reducing the risk of cardiovascular events in a subject with atrial fibrillation and/or atrial flutter” (priority 2019, dated 2025).

What was measured:
Format in all cases: in vivo, human
[1] = tested on: hypertriglyceridemic patients with cardiovascular disease or at high risk for cardiovascular disease; assay: REDUCE-IT: primary and key secondary endpoints adjusted for baseline covariates (stepwise selection) and time varying post-baseline lipids; settings: ITT
Method: The primary efficacy analysis was performed on the ITT population. A sensitivity analysis was performed using the mITT and PP populations. As a sensitivity analysis, patients who discontinued study drug prematurely were censored for the primary composite endpoint analysis on the date of drug discontinuation. The primary analysis was repeated using this censoring rule for the mITT population. As a supportive analysis, a multivariable, stratified Cox proportional hazards model was constructed for the primary endpoint to evaluate the treatment effect adjusting for important covariates.
As an additional exploratory analysis, the relationship between post-baseline biomarker values and treatment effects with the primary and key secondary endpoints were assessed by adding biomarker values (for example, at 4 months, or at 1 year, etc.) as time-dependent covariates in the Cox proportional hazards model. Diagnostic plots for the proportional hazard's assumption was evaluated. Weight was measured at the screening visit and at all follow-up visits, including the last visit of the study. Waist circumference was measured at the randomization visit (Visit 2; Day 0), Visit 5 (Day 720) and the last visit of the study. Descriptive statistics were presented by visit and treatment group for baseline, post-treatment change from baseline, and the percent change from baseline. Analysis methods for repeated measurements were used to compare percent change from baseline between treatments.
In the main analysis of the primary endpoint for the REDUCE-IT trial, treatment was the only covariate employed in the stratified Cox proportional hazards model. Stratification variables included CV risk category at baseline (primary prevention cohort and secondary prevention cohort), use of ezetimibe at baseline (yes/no), and geographical region (Westernized, Eastern European, and Asia Pacific).
The model included treatment and any of the following variables, identified by a stepwise selection procedure: (1) sex; (2) age at baseline (<65 or ≥65 years); (3) race (white and non-white); (4) presence/absence of diabetes at baseline; (5) baseline LDL-C (by tertile); (6) baseline HDL-C (by tertile); (7) baseline non-HDL-C (by tertile); (8) baseline TG (by tertile); (9) baseline hsCRP (≤3 mg/Land >3 mg/L); (10) baseline apo B (by tertile); (11) baseline RLP-C (by tertile); (12) Hopkins calculated LDL-C at baseline (by tertile); (13) waist/height ratio at baseline; (14) waist circumference at baseline.
The SAS proportional hazard regression procedure was used to automatically conduct the stepwise selection of the important baseline covariates. The minimum p-value for the inclusion of the baseline covariate into the proportional hazard model was 0.05, and these selected baseline covariates with p<0.10 would remain in the final model as important baseline covariates after all baseline covariates were evaluated by the model. The HR, 95% CI, and p-value comparing the two treatment groups, and the HR, 95% CI, and p-value for adjusting each selected important baseline covariate in the final model were presented.
As an additional exploratory analysis, the relationships between post-baseline lipid values and treatment effects with the primary and key secondary endpoints were assessed by adding lipid values (at 4 months, 1 year, etc.) as time varying covariates in the Cox proportional hazards model. Diagnostic plots for the proportional hazard's assumption was evaluated.

[2] = tested on: hypertriglyceridemic patients with cardiovascular disease or at high risk for cardiovascular disease; assay: REDUCE-IT: post hoc analyses of primary + risk and key secondary + risk composite endpoints (adding atrial fibrillation/flutter and bleeding); settings: ITT
[3] = tested on: patients receiving icosapent ethyl therapy; assay: Postmarket safety analysis of icosapent ethyl (VASCEPA)
From the text: Over 320,000 patients are currently receiving icosapent ethyl (referenced interchangeably with AMR101 or VASCEPA®) therapy. With over 7 years of postmarket experience, there have been no signals necessitating a label change and no actions taken for safety reasons. Of the patients undergoing treatment with icosapent ethyl, a total of 1,204 unique adverse events (AEs) have been reported. However, there have been no signals of atrial fibrillation and flutter identified in the postmarket reports.

[4] = Overall (with all selected covariates)
[5] = adjusting baseline covariate: Age at baseline (<65 or ≥65 years)
[6] = adjusting baseline covariate: Baseline hsCRP (≤3 mg/L or >3 mg/L)
[7] = adjusting baseline covariate: Baseline non-HDL-C (by tertile)
[8] = adjusting baseline covariate: Presence/absence of diabetes at baseline
[9] = adjusting baseline covariate: Sex
[10] = adjusting time varying covariate HDL-C (mg/dL)
[11] = adjusting time varying covariate LDL-C (Hopkins) (mg/dL)
[12] = adjusting time varying covariate LDL-C (ultracentrifugation) (mg/dL)
[13] = adjusting time varying covariate LDL-C derived (mg/dL)
[14] = adjusting time varying covariate RLP-C (mg/dL)
[15] = adjusting time varying covariate TG (mg/dL)
[16] = adjusting time varying covariate apo B (mg/dL)
[17] = adjusting time varying covariate hsCRP (mg/dL)

## CC/C=C\C/C=C\C/C=C\C/C=C\C/C=C\CCCC(=O)OCC [AMR101, eicosapentaenoic acid ethyl ester]
[1]; [4]
  Time to key secondary endpoint, HR (95% CI) AMR101/Placebo: 0.730 (0.647-0.825)
  Time to primary endpoint, HR (95% CI) AMR101/Placebo: 0.750 (0.680-0.828)
[1]; [5]
  Time to key secondary endpoint, HR (95% CI) AMR101/Placebo: 0.739 (0.654-0.834)
  Time to primary endpoint, HR (95% CI) AMR101/Placebo: 0.755 (0.684-0.833)
[1]; [6]
  Time to key secondary endpoint, HR (95% CI) AMR101/Placebo: 0.731 (0.648-0.826)
  Time to primary endpoint, HR (95% CI) AMR101/Placebo: 0.750 (0.679-0.828)
[1]; [7]
  Time to key secondary endpoint, HR (95% CI) AMR101/Placebo: 0.738 (0.654-0.833)
  Time to primary endpoint, HR (95% CI) AMR101/Placebo: 0.755 (0.684-0.833)
[1]; [8]
  Time to key secondary endpoint, HR (95% CI) AMR101/Placebo: 0.731 (0.647-0.825)
  Time to primary endpoint, HR (95% CI) AMR101/Placebo: 0.750 (0.679-0.827)
[1]; [9]
  Time to key secondary endpoint, HR (95% CI) AMR101/Placebo: 0.734 (0.650-0.829)
  Time to primary endpoint, HR (95% CI) AMR101/Placebo: 0.751 (0.680-0.829)
[1]; [10]
  Time to key secondary endpoint, HR (95% CI) for Treatment (AMR101 vs Placebo): 0.710 (0.629-0.802)
  Time to primary endpoint, HR (95% CI) for Treatment (AMR101 vs Placebo): 0.730 (0.661-0.806)
[1]; adjusting time varying covariate LDL-C (Friedewald) (mg/dL)
  Time to primary endpoint, HR (95% CI) for Treatment (AMR101 vs Placebo): 0.760 (0.688-0.839)
[1]; [11]
  Time to key secondary endpoint, HR (95% CI) for Treatment (AMR101 vs Placebo): 0.761 (0.674-0.860)
  Time to primary endpoint, HR (95% CI) for Treatment (AMR101 vs Placebo): 0.772 (0.699-0.852)
[1]; [12]
  Time to key secondary endpoint, HR (95% CI) for Treatment (AMR101 vs Placebo): 0.737 (0.652-0.834)
  Time to primary endpoint, HR (95% CI) for Treatment (AMR101 vs Placebo): 0.759 (0.687-0.839)
[1]; [13]
  Time to key secondary endpoint, HR (95% CI) for Treatment (AMR101 vs Placebo): 0.740 (0.655-0.836)
  Time to primary endpoint, HR (95% CI) for Treatment (AMR101 vs Placebo): 0.752 (0.681-0.830)
[1]; [14]
  Time to key secondary endpoint, HR (95% CI) for Treatment (AMR101 vs Placebo): 0.768 (0.679-0.867)
  Time to primary endpoint, HR (95% CI) for Treatment (AMR101 vs Placebo): 0.784 (0.709-0.866)
[1]; [15]
  Time to key secondary endpoint, HR (95% CI) for Treatment (AMR101 vs Placebo): 0.754 (0.668-0.851)
  Time to primary endpoint, HR (95% CI) for Treatment (AMR101 vs Placebo): 0.772 (0.700-0.853)
[1]; [16]
  Time to key secondary endpoint, HR (95% CI) for Treatment (AMR101 vs Placebo): 0.752 (0.665-0.850)
  Time to primary endpoint, HR (95% CI) for Treatment (AMR101 vs Placebo): 0.762 (0.690-0.842)
[1]; [17]
  Time to key secondary endpoint, HR (95% CI) for Treatment (AMR101 vs Placebo): 0.745 (0.660-0.841)
  Time to primary endpoint, HR (95% CI) for Treatment (AMR101 vs Placebo): 0.758 (0.686-0.836)
[1]; adjusting time varying covariate non-HDL-C (mg/dL)
  Time to key secondary endpoint, HR (95% CI) for Treatment (AMR101 vs Placebo): 0.773 (0.684-0.874)
[2]
  AFib/AFlutter + MI + Stroke + Cardiac Arrest + Sudden Cardiac Death, Rate/1000 pt yrs: 29.4 /1000 pt yrs
  Key Secondary + AFib/AFlutter, Rate/1000 pt yrs: 33.1 /1000 pt yrs
  Key Secondary + Serious Bleeding, Rate/1000 pt yrs: 32.1 /1000 pt yrs
  Primary + AFib/AFlutter + Serious Bleeding, Rate/1000 pt yrs: 53.5 /1000 pt yrs
  Primary + AFib/AFlutter, Rate/1000 pt yrs: 49.0 /1000 pt yrs
  Primary + Serious Bleeding, Rate/1000 pt yrs: 48.2 /1000 pt yrs
[2]; N = 4089
  AFib/AFlutter + MI + Stroke + Cardiac Arrest + Sudden Cardiac Death, subjects with event: 491
  AFib/AFlutter + MI + Stroke + Cardiac Arrest + Sudden Cardiac Death, subjects with event (%): 12.0%
  Key Secondary + AFib/AFlutter + Serious Bleeding, subjects with event: 625
  Key Secondary + AFib/AFlutter, subjects with event: 552
  Key Secondary + AFib/AFlutter, subjects with event (%): 13.5%
  Key Secondary + Serious Bleeding, subjects with event: 539
  Key Secondary + Serious Bleeding, subjects with event (%): 13.2%
  Primary + AFib/AFlutter + Serious Bleeding, subjects with event: 850
  Primary + AFib/AFlutter + Serious Bleeding, subjects with event (%): 20.8%
  Primary + AFib/AFlutter, subjects with event: 785
  Primary + AFib/AFlutter, subjects with event (%): 19.2%
  Primary + Serious Bleeding, subjects with event: 775
  Primary + Serious Bleeding, subjects with event (%): 19.0%
[2]; vs placebo
  AFib/AFlutter + MI + Stroke + Cardiac Arrest + Sudden Cardiac Death, HR (95% CI): 0.789 (0.701, 0.889)
  Key Secondary + AFib/AFlutter + Serious Bleeding, HR (95% CI): 0.855 (0.768, 0.952)
  Key Secondary + AFib/AFlutter, HR (95% CI): 0.818 (0.731, 0.916)
  Key Secondary + Serious Bleeding, HR (95% CI): 0.789 (0.704, 0.884)
  Primary + AFib/AFlutter + Serious Bleeding, HR (95% CI): 0.830 (0.757, 0.910)
  Primary + AFib/AFlutter, HR (95% CI): 0.803 (0.731, 0.883)
  Primary + Serious Bleeding, HR (95% CI): 0.785 (0.714, 0.863)
[3]; human, in vivo
  Individual serious AEs: 69
  Serious and unexpected AE reports: 48
  Unique adverse events (AEs) reported: 1,204
  Unique nonserious AEs: 1,156
[3]; postmarket
  Reports with fatal outcomes: Four
